Columns and labels:
Type in all cases: in vivo
[1] = system: barnyardgrass (Echinochloa crus-galli); experiment: Test A preemergence, barnyardgrass; settings: 0 to 100 scale, 0 is no effect, 100 is complete control
In short: (§1)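 Using a solvent/surfactant formulation, test chemicals were sprayed onto freshly seeded soil or onto 2–10 cm seedlings at the one- to two-leaf stage. Visual injury ratings on a 0–100 scale were made about 10 d later in the greenhouse.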

[2] = system: foxtail, giant (Setaria faberii); experiment: Test A postemergence, giant foxtail; settings: 0 to 100 scale; for Plant response rating, Foxtail, Giant: 125 g ai/ha, 0 no effect, 100 complete control; for Foxtail, Giant plant response rating: 500 g ai/ha, 0 is no effect, 100 is complete control
In short: as §1

[3] = system: pigweed (Amaranthus retroflexus); experiment: Test A preemergence, pigweed; settings: 0 to 100 scale, 0 is no effect, 100 is complete control
In short: as §1

[4] = system: kochia (Kochia scoparia); experiment: Test A postemergence, kochia; settings: 0 to 100 scale; for Plant response rating, Kochia: 125 g ai/ha, 0 no effect, 100 complete control; for Kochia plant response rating: 500 g ai/ha, 0 is no effect, 100 is complete control
In short: as §1

[5] = system: kochia (Kochia scoparia); experiment: Test A preemergence, kochia; settings: 0 to 100 scale, 0 is no effect, 100 is complete control
In short: as §1

[6] = system: ryegrass, Italian (Lolium multiflorum); experiment: Test A postemergence, Italian ryegrass; settings: 0 to 100 scale; for Plant response rating, Ryegrass, Italian: 125 g ai/ha, 0 no effect, 100 complete control; for Ryegrass, Italian plant response rating: 500 g ai/ha, 0 is no effect, 100 is complete control
In short: as §1

[7] = system: barnyardgrass (Echinochloa crus-galli); experiment: Test A postemergence, barnyardgrass; settings: 0 to 100 scale; for Plant response rating, Barnyardgrass: 125 g ai/ha, 0 no effect, 100 complete control; for Barnyardgrass plant response rating: 500 g ai/ha, 0 is no effect, 100 is complete control
In short: as §1

[8] = system: sedge, umbrella (small-flower umbrella sedge, Cyperus difformis); experiment: Test B flooded paddy test, umbrella sedge; settings: Flood, 250 g ai/ha, applied to paddy water, 2-leaf stage, visual evaluation after 13 to 15 d
In short: (§2)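 Growth to two leaves preceded treatment. Flooding to 3 cm above soil surface, then water-applied compound; depth kept constant. Scored visually relative to controls after 13–15 d greenhouse; 100 means full control.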

[9] = system: wheat (Triticum aestivum); experiment: Test A postemergence, wheat; settings: 0 to 100 scale; for Plant response rating, Wheat: 125 g ai/ha, 0 no effect, 100 complete control; for Wheat plant response rating: 500 g ai/ha, 0 is no effect, 100 is complete control
In short: as §1

[10] = system: blackgrass (Alopecurus myosuroides); experiment: Test A postemergence, blackgrass; settings: 0 to 100 scale; for Plant response rating, Blackgrass: 125 g ai/ha, 0 no effect, 100 complete control; for Blackgrass plant response rating: 500 g ai/ha, 0 is no effect, 100 is complete control
In short: as §1

[11] = system: corn (Zea mays); experiment: Test A postemergence, corn; settings: 0 to 100 scale; for Plant response rating, Corn: 125 g ai/ha, 0 no effect, 100 complete control; for Corn plant response rating: 500 g ai/ha, 0 is no effect, 100 is complete control
In short: as §1

[12] = system: barnyardgrass (Echinochloa crus-galli); experiment: Test B flooded paddy test, barnyardgrass; settings: Flood, 250 g ai/ha, applied to paddy water, 2-leaf stage, visual evaluation after 13 to 15 d
In short: as §2

[13] = system: ryegrass, Italian (Lolium multiflorum); experiment: Test A preemergence, Italian ryegrass; settings: 0 to 100 scale, 0 is no effect, 100 is complete control
In short: as §1

[14] = system: pigweed (Amaranthus retroflexus); experiment: Test A postemergence, pigweed; settings: 0 to 100 scale; for Plant response rating, Pigweed: 125 g ai/ha, 0 no effect, 100 complete control; for Pigweed plant response rating: 500 g ai/ha, 0 is no effect, 100 is complete control
In short: as §1

[15] = system: galium (catchweed bedstraw, Galium aparine); experiment: Test A postemergence, galium; settings: 0 to 100 scale; for Plant response rating, Galium: 125 g ai/ha, 0 no effect, 100 complete control; for Galium plant response rating: 500 g ai/ha, 0 is no effect, 100 is complete control
In short: as §1

[16] = system: ragweed (common ragweed, Ambrosia elatior); experiment: Test A preemergence, ragweed; settings: 0 to 100 scale, 0 is no effect, 100 is complete control
In short: as §1

[17] = system: rice (Oryza sativa); experiment: Test B flooded paddy test, rice; settings: Flood, 250 g ai/ha, applied to paddy water, 2-leaf stage, visual evaluation after 13 to 15 d
In short: as §2

[18] = system: ducksalad (Heteranthera limosa); experiment: Test B flooded paddy test, ducksalad; settings: Flood, 250 g ai/ha, applied to paddy water, 2-leaf stage, visual evaluation after 13 to 15 d
In short: as §2

[19] = system: foxtail, giant (Setaria faberii); experiment: Test A preemergence, giant foxtail; settings: 0 to 100 scale, 0 is no effect, 100 is complete control
In short: as §1

[20] = system: ragweed (common ragweed, Ambrosia elatior); experiment: Test A postemergence, ragweed; settings: 0 to 100 scale; for Plant response rating, Ragweed: 125 g ai/ha, 0 no effect, 100 complete control; for Ragweed plant response rating: 500 g ai/ha, 0 is no effect, 100 is complete control
In short: as §1

C[C@H](Nc1ncc(C(F)(F)F)c(N)n1)c1csc2ccccc12 [Compound 42]
30: Plant response rating, Barnyardgrass [7] | Plant response rating, Ragweed [20]
20: Plant response rating, Blackgrass [10] | Plant response rating, Galium [15] | Galium plant response rating [15]
0: Barnyardgrass plant response rating ([1]; 125 g ai/ha) | Barnyardgrass plant response rating ([1]; 500 g ai/ha) | Plant response rating, Foxtail, Giant [2] | Foxtail, Giant plant response rating [2] | Pigweed plant response rating ([3]; 125 g ai/ha) | Pigweed plant response rating ([3]; 500 g ai/ha) | Plant response rating, Kochia [4] | Kochia plant response rating [4] | Kochia plant response rating ([5]; 125 g ai/ha) | Kochia plant response rating ([5]; 500 g ai/ha) | Plant response rating, Ryegrass, Italian [6] | Ryegrass, Italian plant response rating [6] | Barnyardgrass plant response rating [7] | Plant response rating, Sedge, Umbrella (0 to 100 scale, 0 is no effect, 100 is complete control) [8] | Plant response rating, Wheat [9] | Wheat plant response rating [9] | Blackgrass plant response rating [10] | Plant response rating, Corn [11] | Corn plant response rating [11] | Plant response rating, Barnyardgrass (0 to 100 scale, 0 is no effect, 100 is complete control) [12] | Ryegrass, Italian plant response rating ([13]; 125 g ai/ha) | Ryegrass, Italian plant response rating ([13]; 500 g ai/ha) | Plant response rating, Pigweed [14] | Pigweed plant response rating [14] | Ragweed plant response rating ([16]; 125 g ai/ha) | Ragweed plant response rating ([16]; 500 g ai/ha) | Plant response rating, Rice (0 to 100 scale, 0 is no effect, 100 is complete control) [17] | Plant response rating, Ducksalad (0 to 100 scale, 0 is no effect, 100 is complete control) [18] | Foxtail, Giant plant response rating ([19]; 125 g ai/ha) | Foxtail, Giant plant response rating ([19]; 500 g ai/ha) | Ragweed plant response rating [20]

CC[C@@H](Nc1ncc(C(F)(F)F)c(N)n1)c1cc2ccccc2s1 [Compound 43]
70: Barnyardgrass plant response rating ([1]; 125 g ai/ha) | Barnyardgrass plant response rating ([1]; 500 g ai/ha) | Plant response rating, Galium [15]
100: Foxtail, Giant plant response rating [2] | Pigweed plant response rating ([3]; 500 g ai/ha) | Kochia plant response rating ([5]; 500 g ai/ha) | Barnyardgrass plant response rating [7] | Plant response rating, Pigweed [14] | Pigweed plant response rating [14] | Ragweed plant response rating ([16]; 125 g ai/ha) | Ragweed plant response rating ([16]; 500 g ai/ha)
30: Plant response rating, Foxtail, Giant [2]
20: Plant response rating, Barnyardgrass [7] | Blackgrass plant response rating [10] | Corn plant response rating [11] | Ryegrass, Italian plant response rating ([13]; 125 g ai/ha)
60: Plant response rating, Ragweed [20]
50: Ryegrass, Italian plant response rating ([13]; 500 g ai/ha)
80: Foxtail, Giant plant response rating ([19]; 125 g ai/ha)
90: Pigweed plant response rating ([3]; 125 g ai/ha) | Plant response rating, Kochia [4] | Kochia plant response rating [4] | Kochia plant response rating ([5]; 125 g ai/ha) | Galium plant response rating [15] | Foxtail, Giant plant response rating ([19]; 500 g ai/ha) | Ragweed plant response rating [20]
0: Plant response rating, Sedge, Umbrella (0 to 100 scale, 0 is no effect, 100 is complete control) [8] | Plant response rating, Wheat [9] | Wheat plant response rating [9] | Plant response rating, Blackgrass [10] | Plant response rating, Corn [11] | Plant response rating, Barnyardgrass (0 to 100 scale, 0 is no effect, 100 is complete control) [12] | Plant response rating, Rice (0 to 100 scale, 0 is no effect, 100 is complete control) [17] | Plant response rating, Ducksalad (0 to 100 scale, 0 is no effect, 100 is complete control) [18]
40: Plant response rating, Ryegrass, Italian [6] | Ryegrass, Italian plant response rating [6]

CC[C@H](Nc1ncc(C(F)(F)F)c(N)n1)c1cc2ccccc2s1 [Compound 44]
0: Barnyardgrass plant response rating ([1]; 125 g ai/ha) | Plant response rating, Foxtail, Giant [2] | Plant response rating, Kochia [4] | Kochia plant response rating ([5]; 125 g ai/ha) | Kochia plant response rating ([5]; 500 g ai/ha) | Plant response rating, Ryegrass, Italian [6] | Ryegrass, Italian plant response rating [6] | Plant response rating, Barnyardgrass [7] | Barnyardgrass plant response rating [7] | Plant response rating, Sedge, Umbrella (0 to 100 scale, 0 is no effect, 100 is complete control) [8] | Plant response rating, Wheat [9] | Wheat plant response rating [9] | Plant response rating, Blackgrass [10] | Plant response rating, Corn [11] | Corn plant response rating [11] | Plant response rating, Barnyardgrass (0 to 100 scale, 0 is no effect, 100 is complete control) [12] | Ryegrass, Italian plant response rating ([13]; 125 g ai/ha) | Ryegrass, Italian plant response rating ([13]; 500 g ai/ha) | Plant response rating, Pigweed [14] | Plant response rating, Galium [15] | Galium plant response rating [15] | Plant response rating, Rice (0 to 100 scale, 0 is no effect, 100 is complete control) [17] | Plant response rating, Ducksalad (0 to 100 scale, 0 is no effect, 100 is complete control) [18] | Foxtail, Giant plant response rating ([19]; 125 g ai/ha) | Plant response rating, Ragweed [20] | Ragweed plant response rating [20]
40: Barnyardgrass plant response rating ([1]; 500 g ai/ha)
10: Foxtail, Giant plant response rating [2]
60: Pigweed plant response rating [14]
20: Pigweed plant response rating ([3]; 125 g ai/ha) | Pigweed plant response rating ([3]; 500 g ai/ha) | Blackgrass plant response rating [10] | Ragweed plant response rating ([16]; 125 g ai/ha) | Foxtail, Giant plant response rating ([19]; 500 g ai/ha)
50: Kochia plant response rating [4] | Ragweed plant response rating ([16]; 500 g ai/ha)

From patent US20220119354A1, “DIAMINO-SUBSTITUTED PYRIDINES AND PYRIMIDINES AS HERBICIDES” (FMC Corporation, priority 2019, published 2022)
